According to US4820695A, “C-20-dihydro-deoxy-(cyclic amino)-derivatives of macrolide antibiotics” (priority 1987, dated 1989):
In brackets after ≈: the same amount, converted by molar mass. Read-outs that look alike come from different tables or passages of the source.

Key:
Staphyloccus aureus X1.1 = assay: MIC, standard agar-dilution assay (Table IX); assay type: cell-based, Staphylococcus aureus; conditions: Staphylococcus aureus, read-out: MIC
[1] = system: Staphylococcus aureus V41; assay: MIC, standard agar-dilution assay (Table IX); assay type: cell-based; conditions: Staphylococcus aureus V41, Penicillin-resistant strain, read-out: MIC
[2] = system: Staphylococcus aureus X400; assay: MIC, standard agar-dilution assay (Table IX); assay type: cell-based; conditions: Staphylococcus aureus X400, Methicillin-resistant strain, read-out: MIC
[3] = system: Staphylococcus aureus S13E; assay: MIC, standard agar-dilution assay (Table IX); assay type: cell-based; conditions: Staphylococcus aureus, S13E
[4] = system: Staphylococcus epidermidis EPI1; assay: MIC, standard agar-dilution assay (Table IX); assay type: cell-based; conditions: Staphylococcus epidermidis EPI1; agar-dilution; read-out: MIC
[5] = system: Staphylococcus epidermidis 222; assay: MIC, standard agar-dilution assay (Table IX); assay type: cell-based; conditions: read-out: MIC
[6] = system: Streptococcus pyogenes C203; assay: MIC, standard agar-dilution assay (Table IX); assay type: cell-based; conditions: read-out: MIC
[7] = system: Streptococcus pneumoniae Park I; assay: MIC, standard agar-dilution assay (Table IX); assay type: cell-based; conditions: Streptococcus pneumoniae Park I; agar-dilution; read-out: MIC
[8] = system: Streptococcus Group D X66; assay: MIC, standard agar-dilution assay (Table IX); assay type: cell-based; conditions: read-out: MIC
[9] = system: Streptococcus Group D 2041; assay: MIC, standard agar-dilution assay (Table IX); assay type: cell-based; conditions: GROUPD2041, read-out: MIC
[10] = system: Haemophilus influenzae C.L.; assay: MIC, standard agar-dilution assay (Table IX); assay type: cell-based; conditions: Ampicillin-sensitive strain, read-out: MIC
[11] = system: Haemophilus influenzae 76; assay: MIC, standard agar-dilution assay (Table IX); assay type: cell-based; conditions: Haemophilus influenzae 76, Ampicillin-resistant strain, read-out: MIC
Escherichia coli N10 = assay: MIC, standard agar-dilution assay (Table IX); assay type: cell-based; conditions: read-out: MIC
Escherichia coli EC14 = assay: MIC, standard agar-dilution assay (Table IX); assay type: cell-based; conditions: read-out: MIC
Escherichia coli TEM = assay: MIC, standard agar-dilution assay (Table IX); assay type: cell-based; conditions: read-out: MIC
Klebsiella X26 = assay: MIC, standard agar-dilution assay (Table IX); assay type: cell-based; conditions: read-out: MIC
[12] = system: Mycoplasma gallisepticum 29C; assay: MIC, broth-dilution microtiter test (Table X); assay type: cell-based; conditions: Mycoplasmoides gallisepticum, read-out: MIC
Description: (§1) The MIC's in Table X were obtained using conventional broth-dilution microtiter tests.

[13] = system: Mycoplasma hyopneumoniae S5972; assay: MIC, broth-dilution microtiter test (Table X); assay type: cell-based; conditions: Mesomycoplasma hyopneumoniae, read-out: MIC
Description: as §1

Mycoplasma hyorhinis 29E = assay: MIC, broth-dilution microtiter test (Table X); assay type: cell-based; conditions: read-out: MIC
Description: as §1

Mycoplasma synoviae 40A = assay: MIC, broth-dilution microtiter test (Table X); assay type: cell-based; conditions: Mycoplasmopsis synoviae, read-out: MIC
Description: as §1

[14] = system: Pasteurella hemolytica 22C; assay: MIC, broth-dilution microtiter test (Table X); assay type: cell-based; conditions: read-out: MIC
Description: as §1

[15] = system: Pasteurella multocida 17E; assay: MIC, broth-dilution microtiter test (Table X); assay type: cell-based; conditions: Bovine isolate, read-out: MIC
Description: as §1

[16] = system: Pasteurella multocida 60A; assay: MIC, broth-dilution microtiter test (Table X); assay type: cell-based; conditions: Avian isolate, read-out: MIC
Description: as §1

[17] = system: Staphylococcus aureus 19C; assay: MIC, broth-dilution microtiter test (Table X); assay type: cell-based
Description: as §1

Streptococcus sp. 19F = assay: MIC, broth-dilution microtiter test (Table X); assay type: cell-based; conditions: read-out: MIC
Description: as §1

[18] = system: Streptococcus pyogenes C203; assay: ED50 in mice experimentally infected with S. pyogenes C203 (Table XI); assay type: in vivo; conditions: Streptococcus pyogenes, doses given 1 and 4 hours postinfection, read-out: ED50
How it was run: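 Protective ED50 (mg/kg × 2) was determined as the dose sparing half the animals. Test compound was given twice, at 1 and 4 hours after experimental S. pyogenes C203 infection of mice.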

Pasteurella multocida = assay: Pasteurella infection in one-day-old chicks, medicated drinking water (Table XIII); assay type: in vivo; conditions: Administered in the available drinking water at 2 g/gal
How it was run: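 Oral dosing was by medicated drinking water (2 g/gal), offered from 4–20 h pre-infection and through a 3-day observation period. The chicks, one day old, were infected s.c. with 0.1 ml of a 10^-4-diluted, 20-h tryptose broth culture of avian Pasteurella multocida.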

Compound | MIC (Staphyloccus aureus X1.1) | MIC [1] | MIC [2] | MIC [3] | MIC [4] | MIC [5] | MIC [6] | MIC [7] | MIC [8] | MIC [12] | MIC [13] | MIC (Mycoplasma hyorhinis 29E) | MIC (Mycoplasma synoviae 40A) | MIC [14] | MIC [15] | MIC [16] | MIC [17] | MIC (Streptococcus sp. 19F) | ED50 ([18]; C203, Oral) | ED50 ([18]; C203, sc, Subcutaneous) | further results
CCC1OC(=O)CC(O)C(C)C(OC2OC(C)C(O)C(N(C)C)C2O)C(CCN2C(C)CCCC2C)CC(C)C(=O)C=CC(C)=CC1COC1OC(C)C(O)C(OC)C1OC (stereo not drawn) [Compound D41] | 8 µg/mL (≈ 9.2 µM) | 8 µg/mL (≈ 9.2 µM) | 8 µg/mL (≈ 9.2 µM) | 8 µg/mL (≈ 9.2 µM) | 8 µg/mL (≈ 9.2 µM) | 2 µg/mL (≈ 2.3 µM) | 1 µg/mL (≈ 1.15 µM) | 1 µg/mL (≈ 1.15 µM) | 32 µg/mL (≈ 36.8 µM) | 6.25 µg/mL (≈ 7.19 µM) | 3.12 µg/mL (≈ 3.59 µM) | 50 µg/mL (≈ 57.5 µM) | 1.56 µg/mL (≈ 1.79 µM) | > 50 µg/mL | 25 µg/mL (≈ 28.8 µM) | 50 µg/mL (≈ 57.5 µM) | 6.25 µg/mL (≈ 7.19 µM) | 6.25 µg/mL (≈ 7.19 µM) | > 100 mg/kg | 2.04 mg/kg | MIC [9]: 32 µg/mL (≈ 36.8 µM); MIC [10]: 64 µg/mL (≈ 73.6 µM); MIC [11]: 64 µg/mL (≈ 73.6 µM); MIC (Escherichia coli N10): > 128 µg/mL; MIC (Escherichia coli EC14): > 128 µg/mL; MIC (Escherichia coli TEM): > 128 µg/mL; MIC (Klebsiella X26): 128 µg/mL (≈ 147 µM)
CCC1OC(=O)CC(O)C(C)C(OC2OC(C)C(O)C(N(C)C)C2O)C(CCN2CCc3ccccc32)CC(C)C(=O)C=CC(C)=CC1COC1OC(C)C(O)C(OC)C1OC (stereo not drawn) [Compound D42] | 5 µg/mL (≈ 5.71 µM) | 0.25 µg/mL (≈ 0.286 µM) | 0.5 µg/mL (≈ 0.571 µM) | 0.5 µg/mL (≈ 0.571 µM) | 0.5 µg/mL (≈ 0.571 µM) | 0.25 µg/mL (≈ 0.286 µM) | 0.5 µg/mL (≈ 0.571 µM) | 0.25 µg/mL (≈ 0.286 µM) | 2 µg/mL (≈ 2.29 µM) | 0.097 µg/mL (≈ 0.111 µM) | 0.097 µg/mL (≈ 0.111 µM) | 3.12 µg/mL (≈ 3.57 µM) | 0.195 µg/mL (≈ 0.223 µM) | 50 µg/mL (≈ 57.1 µM) | 12.5 µg/mL (≈ 14.3 µM) | 25 µg/mL (≈ 28.6 µM) | 0.78 µg/mL (≈ 0.891 µM) | 0.78 µg/mL (≈ 0.891 µM) | – | – | MIC [9]: 2 µg/mL (≈ 2.29 µM); MIC [10]: 16 µg/mL (≈ 18.3 µM); MIC [11]: 8 µg/mL (≈ 9.14 µM); MIC (Escherichia coli N10): > 128 µg/mL; MIC (Escherichia coli EC14): > 128 µg/mL; MIC (Escherichia coli TEM): > 128 µg/mL; MIC (Klebsiella X26): 64 µg/mL (≈ 73.1 µM)
CCC1OC(=O)CC(O)C(C)C(OC2OC(C)C(O)C(N(C)C)C2O)C(CCN2CCC3(CCCCC3)CC2)CC(C)C(=O)C=CC(C)=CC1COC1OC(C)C(O)C(OC)C1OC (stereo not drawn) [Compound D43] | – | – | – | – | – | – | – | – | – | 0.195 µg/mL (≈ 0.214 µM) | 0.78 µg/mL (≈ 0.858 µM) | 25 µg/mL (≈ 27.5 µM) | < 0.048 µg/mL | 6.25 µg/mL (≈ 6.87 µM) | 6.25 µg/mL (≈ 6.87 µM) | 6.25 µg/mL (≈ 6.87 µM) | 1.56 µg/mL (≈ 1.72 µM) | 1.56 µg/mL (≈ 1.72 µM) | 8 mg/kg | 1.34 mg/kg | –
CCC1OC(=O)CC(O)C(C)C(OC2OC(C)C(O)C(N(C)C)C2O)C(CCN2CCC3CCCCC32)CC(C)C(=O)C=CC(C)=CC1COC1OC(C)C(O)C(OC)C1OC (stereo not drawn) [Compound D44] | – | – | – | – | – | – | – | – | – | 1.56 µg/mL (≈ 1.77 µM) | 0.39 µg/mL (≈ 0.443 µM) | 50 µg/mL (≈ 56.7 µM) | 0.097 µg/mL (≈ 0.11 µM) | 12.5 µg/mL (≈ 14.2 µM) | 12.5 µg/mL (≈ 14.2 µM) | 12.5 µg/mL (≈ 14.2 µM) | 3.12 µg/mL (≈ 3.54 µM) | 1.56 µg/mL (≈ 1.77 µM) | 37.9 mg/kg | 0.69 mg/kg | –
CCC1OC(=O)CC(O)C(C)C(OC2OC(C)C(O)C(N(C)C)C2O)C(CCN2CC3CCC(C3)C2)CC(C)C(=O)C=CC(C)=CC1COC1OC(C)C(O)C(OC)C1OC (stereo not drawn) [Compound D46] | – | – | – | – | – | – | – | – | – | 0.195 µg/mL (≈ 0.225 µM) | 3.12 µg/mL (≈ 3.6 µM) | 25 µg/mL (≈ 28.8 µM) | 1.56 µg/mL (≈ 1.8 µM) | 6.25 µg/mL (≈ 7.21 µM) | 6.25 µg/mL (≈ 7.21 µM) | 12.5 µg/mL (≈ 14.4 µM) | 3.12 µg/mL (≈ 3.6 µM) | 1.56 µg/mL (≈ 1.8 µM) | – | – | Number of Deaths/Number Treated (Pasteurella multocida): 3/10
